Measurements as given in patent US9738634B2, “Heterocyclic amide compound and herbicide” (SYNGENTA PARTICIPATIONS AG, priority 2013, dated 2017).

Tests used:
Assay type in all cases: in vivo
barnyard grass [1] = test: Test Example 1: weedkilling efficacy, preemergent weed treatment in the submerged state; A: barnyard grass; conditions: treatment dosage 320 g/ha
In short: (§1)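 Alluvial soil in Wagner pots flooded to 4 cm; barnyard grass, bulrush and oval-leafed pondweed seeds sown, then 2.5-leaf rice seedlings transplanted. Same day, emulsified compound diluted in water to set g/ha dosages and applied to water surface; greenhouse 25–30 °C, effect scored by criteria after 3 weeks.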

bulrush [2] = test: Test Example 1: weedkilling efficacy, preemergent weed treatment in the submerged state; B: bulrush; conditions: treatment dosage 320 g/ha
In short: as §1

oval-leafed pondweed [3] = test: Test Example 1: weedkilling efficacy, preemergent weed treatment in the submerged state; C: oval-leafed pondweed; conditions: treatment dosage 320 g/ha
In short: as §1

transplanted rice = test: Test Example 1: preemergent weed treatment in the submerged state, effect on crop; a: transplanted rice; conditions: treatment dosage 320 g/ha
In short: as §1

barnyard grass [4] = test: Test Example 2: weedkilling efficacy, growth period weed treatment in the submerged state; A: barnyard grass; conditions: treatment dosage 320 g/ha
In short: (§2)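 First, alluvial soil in pots is flooded to 4 cm and mixed seed is sown. Next, plants grow in a greenhouse at 25 to 30° C until the 1-2 leaf stage. Then diluted emulsion is applied onto the water surface at the given g/ha rate, and injury is assessed after 3 weeks.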

bulrush [5] = test: Test Example 2: weedkilling efficacy, growth period weed treatment in the submerged state; B: bulrush; conditions: treatment dosage 320 g/ha
In short: as §2

oval-leafed pondweed [6] = test: Test Example 2: weedkilling efficacy, growth period weed treatment in the submerged state; C: oval-leafed pondweed; conditions: treatment dosage 320 g/ha
In short: as §2

crabgrass = test: Test Example 3: weedkilling efficacy through soil treatment; D: crabgrass; conditions: soil treatment, treatment dosage 320 g/ha
In short: (§3)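 Crop and weed responses were judged three weeks after a uniform surface spray of the water-diluted emulsion at the given g/ha rate. Seeds sat beneath about 1.5 cm of sterilized diluvial soil, and boxes stood in a greenhouse at 25 to 30° C.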

green foxtail = test: Test Example 3: weedkilling efficacy through soil treatment; E: green foxtail; conditions: soil treatment, treatment dosage 320 g/ha
In short: as §3

barnyard grass [7] = test: Test Example 3: weedkilling efficacy through soil treatment; F: barnyard grass; conditions: soil treatment, treatment dosage 320 g/ha
Description: (§4) Weedkilling Efficacy Test Through Soil Treatment
(§5) Sterilized diluvial soil was introduced into 21 cm long, 13 cm wide, 7 cm deep plastic boxes, and seeds of crabgrass, green foxtail, barnyard grass, wild oat, black-grass, Italian ryegrass, common wind-grass, Indian mallow, redroot pigweed, fig-leafed goosefoot, chickweed, catchweed, birds-eye speedwell, corn, soybean, rice, wheat, beet and rapeseed were each spot-sown, and covered with about 1.5 cm of soil. Next, emulsions of compounds of the present invention prepared according to compounding example 2 were diluted with water to give the specified dosages, and applied uniformly onto the soil surface with a small sprayer. The plants were grown by placing the plastic boxes in a greenhouse at 25 to 30° C., and 3 weeks after the pesticide treatment the effect on each type of plant was investigated on the basis of the assessment criteria of test example 1.
(§6) A: barnyard grass, B: bulrush, C: oval-leafed pondweed, D: crabgrass, E: green foxtail, F: barnyard grass, G: wild oat, H: black-grass, I: Italian ryegrass, J: common wind-grass, K: Indian mallow, L: redroot pigweed, M: fig-leafed goosefoot, N: chickweed, O: catchweed, p: birds-eye speedwell, a: transplanted rice, b: directly sown rice, c: corn, d: soybean, e: wheat, f: beet, g: rapeseed
(§7) Further, pesticide dosage (g/ha) indicates the concentration regulated such that treatment was with only the stated number of grams (g), when calculated per hectare (ha).

wild oat = test: Test Example 3: weedkilling efficacy through soil treatment; G: wild oat; conditions: soil treatment, treatment dosage 320 g/ha
In short: as §3

black-grass = test: Test Example 3: weedkilling efficacy through soil treatment; H: black-grass; conditions: soil treatment, treatment dosage 320 g/ha
In short: as §3

Italian ryegrass = test: Test Example 3: weedkilling efficacy through soil treatment; I: Italian ryegrass; conditions: soil treatment, treatment dosage 320 g/ha
In short: as §3

common wind-grass = test: Test Example 3: weedkilling efficacy through soil treatment; J: common wind-grass; conditions: soil treatment, treatment dosage 320 g/ha
Description: as §4, §5, §6, §7

Indian mallow = test: Test Example 3: weedkilling efficacy through soil treatment; K: Indian mallow; conditions: soil treatment, treatment dosage 320 g/ha
In short: as §3

redroot pigweed = test: Test Example 3: weedkilling efficacy through soil treatment; L: redroot pigweed; conditions: soil treatment, treatment dosage 320 g/ha
In short: as §3

fig-leafed goosefoot = test: Test Example 3: weedkilling efficacy through soil treatment; M: fig-leafed goosefoot; conditions: soil treatment, treatment dosage 320 g/ha
In short: as §3

chickweed = test: Test Example 3: weedkilling efficacy through soil treatment; N: chickweed; conditions: soil treatment, treatment dosage 320 g/ha
In short: as §3

birds-eye speedwell = test: Test Example 3: weedkilling efficacy through soil treatment; p: birds-eye speedwell; conditions: soil treatment, treatment dosage 320 g/ha
In short: as §3

directly sown rice = test: Test Example 3: soil treatment, effect on crop; b: directly sown rice; conditions: soil treatment, treatment dosage 320 g/ha
In short: as §3

corn = test: Test Example 3: soil treatment, effect on crop; c: corn; conditions: soil treatment, treatment dosage 320 g/ha
In short: as §3

soybean = test: Test Example 3: soil treatment, effect on crop; d: soybean; conditions: soil treatment, treatment dosage 320 g/ha
In short: as §3

wheat = test: Test Example 3: soil treatment, effect on crop; e: wheat; conditions: soil treatment, treatment dosage 320 g/ha
In short: as §3

beet = test: Test Example 3: soil treatment, effect on crop; f: beet; conditions: soil treatment, treatment dosage 320 g/ha
In short: as §3

rapeseed = test: Test Example 3: soil treatment, effect on crop; g: rapeseed; conditions: soil treatment, treatment dosage 320 g/ha
Description: as §4, §5, §6, §7

Structure (SMILES)	A: barnyard grass, weed kill grade (barnyard grass [1])	B: bulrush, weed kill grade (bulrush [2])	D: crabgrass, weedkilling efficacy grade (crabgrass)	E: green foxtail, weedkilling efficacy grade (green foxtail)	F: barnyard grass, weedkilling efficacy grade (barnyard grass [7])	G: wild oat, weedkilling efficacy grade (wild oat)	H: black-grass, weedkilling efficacy grade (black-grass)	I: Italian ryegrass, weedkilling efficacy grade (Italian ryegrass)	J: common wind-grass, weedkilling efficacy grade (common wind-grass)	K: Indian mallow, weedkilling efficacy grade (Indian mallow)	L: redroot pigweed, weedkilling efficacy grade (redroot pigweed)	M: fig-leafed goosefoot, weedkilling efficacy grade (fig-leafed goosefoot)	N: chickweed, weedkilling efficacy grade (chickweed)	P: birds-eye speedwell, weedkilling efficacy grade (birds-eye speedwell)	b: directly sown rice, effect on crop grade (directly sown rice)	c: corn, effect on crop grade (corn)	d: soybean, effect on crop grade (soybean)	e: wheat, effect on crop grade (wheat)	f: beet, effect on crop grade (beet)	g: rapeseed, effect on crop grade (rapeseed)	other results
CC(C)(C(=O)Nc1cc(C(F)(F)F)cc(F)n1)N1COCN(c2ccccc2)C1=O [A-2-22]	5 (weed kill ratio 90% or more, (practically complete withering))	5 (weed kill ratio 90% or more, (practically complete withering))	5 (weed kill ratio 90% or more, (practically complete withering))	5 (weed kill ratio 90% or more, (practically complete withering))	5 (weed kill ratio 90% or more, (practically complete withering))	5 (weed kill ratio 90% or more, (practically complete withering))	5 (weed kill ratio 90% or more, (practically complete withering))	5 (weed kill ratio 90% or more, (practically complete withering))	5 (weed kill ratio 90% or more, (practically complete withering))	4 (weed kill ratio 70% or more, less than 90%)	4 (weed kill ratio 70% or more, less than 90%)	4 (weed kill ratio 70% or more, less than 90%)	4 (weed kill ratio 70% or more, less than 90%)	5 (weed kill ratio 90% or more, (practically complete withering))	5 (weed kill ratio 90% or more, (practically complete withering))	0 (weed kill ratio 5% or less (practically no effect))	4 (weed kill ratio 70% or more, less than 90%)	0 (weed kill ratio 5% or less (practically no effect))	4 (weed kill ratio 70% or more, less than 90%)	4 (weed kill ratio 70% or more, less than 90%)	C: oval-leafed pondweed, weed kill grade (oval-leafed pondweed [3]): 5 (weed kill ratio 90% or more, (practically complete withering)); a: transplanted rice, effect on crop grade (transplanted rice): 5 (weed kill ratio 90% or more, (practically complete withering)); A (barnyard grass) weedkilling efficacy grade (barnyard grass [4]): 5 (weed kill ratio 90% or more, (practically complete withering)); B (bulrush) weedkilling efficacy grade (bulrush [5]): 5 (weed kill ratio 90% or more, (practically complete withering)); C (oval-leafed pondweed) weedkilling efficacy grade (oval-leafed pondweed [6]): 5 (weed kill ratio 90% or more, (practically complete withering))
Cc1cc(Cl)cc(NC(=O)C(C)(C)N2COCN(c3ccccc3)C2=O)n1 [A-2-25]	5 (weed kill ratio 90% or more, (practically complete withering))	5 (weed kill ratio 90% or more, (practically complete withering))	5 (weed kill ratio 90% or more, (practically complete withering))	5 (weed kill ratio 90% or more, (practically complete withering))	5 (weed kill ratio 90% or more, (practically complete withering))	4 (weed kill ratio 70% or more, less than 90%)	5 (weed kill ratio 90% or more, (practically complete withering))	5 (weed kill ratio 90% or more, (practically complete withering))	5 (weed kill ratio 90% or more, (practically complete withering))	5 (weed kill ratio 90% or more, (practically complete withering))	4 (weed kill ratio 70% or more, less than 90%)	4 (weed kill ratio 70% or more, less than 90%)	4 (weed kill ratio 70% or more, less than 90%)	5 (weed kill ratio 90% or more, (practically complete withering))	5 (weed kill ratio 90% or more, (practically complete withering))	0 (weed kill ratio 5% or less (practically no effect))	0 (weed kill ratio 5% or less (practically no effect))	0 (weed kill ratio 5% or less (practically no effect))	4 (weed kill ratio 70% or more, less than 90%)	3 (weed kill ratio 40% or more, less than 70%)	C: oval-leafed pondweed, weed kill grade (oval-leafed pondweed [3]): 5 (weed kill ratio 90% or more, (practically complete withering)); a: transplanted rice, effect on crop grade (transplanted rice): 3 (weed kill ratio 40% or more, less than 70%); A (barnyard grass) weedkilling efficacy grade (barnyard grass [4]): 5 (weed kill ratio 90% or more, (practically complete withering)); B (bulrush) weedkilling efficacy grade (bulrush [5]): 5 (weed kill ratio 90% or more, (practically complete withering)); C (oval-leafed pondweed) weedkilling efficacy grade (oval-leafed pondweed [6]): 5 (weed kill ratio 90% or more, (practically complete withering))
CC(C)(C(=O)Nc1cc(Cl)cc(Cl)n1)N1COCN(c2ccccc2)C1=S [A-2-18, N-(4,6-dichloropyridin-2-yl)-2-methyl-2-(5-phenyl-4-thioxo-1,3,5-oxadiazinan-3-yl) propionamide]			5 (weed kill ratio 90% or more, (practically complete withering))	5 (weed kill ratio 90% or more, (practically complete withering))	5 (weed kill ratio 90% or more, (practically complete withering))	3 (weed kill ratio 40% or more, less than 70%)	5 (weed kill ratio 90% or more, (practically complete withering))	5 (weed kill ratio 90% or more, (practically complete withering))	5 (weed kill ratio 90% or more, (practically complete withering))	2 (weed kill ratio 20% or more, less than 40%)	3 (weed kill ratio 40% or more, less than 70%)	3 (weed kill ratio 40% or more, less than 70%)	3 (weed kill ratio 40% or more, less than 70%)	5 (weed kill ratio 90% or more, (practically complete withering))	5 (weed kill ratio 90% or more, (practically complete withering))	1 (weed kill ratio 5% or more, less than 20%)	0 (weed kill ratio 5% or less (practically no effect))	0 (weed kill ratio 5% or less (practically no effect))	3 (weed kill ratio 40% or more, less than 70%)	3 (weed kill ratio 40% or more, less than 70%)	
